# Data as given in US20220364056A1, “SHORT-CHAIN FATTY ACID PENTANOATE AS ENHANCER FOR CELLULAR THERAPY AND ANTI-TUMOR THERAPY” (PHILIPPS-UNIVERSITÄT MARBURG, priority 2019, published 2022).
# Experiments:
# [1] = test system: murine ROR1-recognizing CAR T lymphocytes; test: murine ROR1-specific CAR T cells stimulated with HDACi, ELISA and flow cytometry; assay type: cell-based; conditions: three days of stimulation
# Method: (A) Experimental design for the analysis HDACi-treated ROR1-specific CD8^+ CAR T cells (CARROR1+HDAC). (B and C) The production of TNF-α and IFN-γ from CAR T cells was measured by ELISA and flow cytometry analysis after three days of stimulation with the indicated HDACi. (D) The surface expression of CD25 on CAR T cells was measured by flow cytometry analysis after three days of stimulation with the indicated HDACi (n=3 combined from 3 independent experiments). (E and F) After three days of pre-treatment with pentanoate, CD19t^+ ROR1-specific CAR T cells were transferred intraperitoneally (i.p) into mice bearing 5-days old PancROR1 tumors. In E, Tumor volume and tumor mass were analyzed (n=3 mice/group/experiment combined from 2 independent experiments). (F) The percentage and total cell number of transferred TNF-α and IFN-γ CD19t^+ ROR1-specific CART cells in the tumor tissue at day 14 after tumor inoculation are shown.
# B16OVA melanoma cells = test: adoptive transfer of pretreated OT-I CTLs into mice bearing s.c. B16OVA tumors; assay type: in vivo
# HDAC = test: fluorogenic HDAC assay on CTL-derived cell lysates; assay type: biochemical, murine; conditions: unstimulated CTLs set to 1.0
# Method: (A) Experimental design for the treatment of CTLs with the water-soluble fraction of intestinal content derived from SPF or GF mice. (B and C) Frequencies of IFN-γ- and TNF-α-producing CTLs treated with the extract from luminal content derived from indicated organs. Representative results of two experiments are shown (n=3). (D) ELISA was performed to measure the secretion of TNF-α by CLTs treated as shown in (A). (E) Quantitative measurement of total SCFA amounts in fecal samples of SPF and GF mice (n=5). (F and G) The percentage of IFN-γ^+ TNF-α^+ CTLs treated with the indicated SCFAs for three days (n=3, one of three independent experiments is shown). (H) The secretion of TNF-α from CTLs treated with SCFAs was determined by ELISA (n=3, one of two independent experiments is shown). (I) The fluorogenic HDAC assay was applied to measure the HDAC inhibitory activity of SCFAs on CTLs. The value for unstimulated CTLs was arbitrarily set to 1.0. Four independent experiments were performed. (J and K) Representative contour plots (J) and bar graphs (K) showing the frequency of IFN-γ+ and TNF-α+ cells after pentanoate (2 mM) or VPA (0.5 mM) administration. Three similar experiments were performed. (L and M) The frequency of Eomes- and T-bet-expressing CTLs treated with pentanoate (2 mM) or VPA (0.5 mM) for three days was analyzed by flow cytometry (n=4). […]
# [2] = test system: ROR1-expressing Panc02 pancreatic tumor cells (PancROR1); test: transfer of pretreated ROR1-specific CAR T cells into mice bearing s.c. PancROR1 tumors; assay type: in vivo
# histones H3 and H4 = test: Western blot of H3Ac and H4Ac in CD8+ T cells; assay type: cell-based, murine; conditions: SCFAs for 3 days
# Method: Representative histogram plots (A) and bar graphs (B) are showing the frequency of Annexin V^+ cells. Three similar experiments were performed. (C) Representative effector molecule staining of CD8^+ T cells polarized under suboptimal CTL-inducing conditions, treated with pentanoate or TSA (10 nM Sigma-Aldrich) in presence of 2-DG (1 mM, Sigma-Aldrich) or rapamycin (100 nM, Sigma-Aldrich) for 3 days. Three independent experiments were performed. (D) Western blot analysis of H3Ac and H4Ac in CD8^+ T cells treated with SCFAs for 3 days. (E) Pan-H4Ac ChIP qPCR analysis for Tbx21 promoter accessibility in pentanoate-treated CTLs. Data are from pooled chromatin of three mice. (F and G) CD8^+ T cells isolated from WT and Tbx21^−/− mice were polarized under suboptimal CTL-inducing conditions in presence of increasing pentanoate concentrations. Representative contour plots (F) and bar graphs (G) show the frequency of IFN-γ+ and IL-17A^+ cells. Two similar experiments were performed.
# HDAC2 = HDAC2 (Homo sapiens, UniProt Q92769); test: HDAC inhibition of the recombinant HDAC2 isoform; assay type: biochemical; conditions: supernatants; different concentrations of SCFAs
# HDAC2, sequence (Q92769 whole entry, species assumed, canonical isoform): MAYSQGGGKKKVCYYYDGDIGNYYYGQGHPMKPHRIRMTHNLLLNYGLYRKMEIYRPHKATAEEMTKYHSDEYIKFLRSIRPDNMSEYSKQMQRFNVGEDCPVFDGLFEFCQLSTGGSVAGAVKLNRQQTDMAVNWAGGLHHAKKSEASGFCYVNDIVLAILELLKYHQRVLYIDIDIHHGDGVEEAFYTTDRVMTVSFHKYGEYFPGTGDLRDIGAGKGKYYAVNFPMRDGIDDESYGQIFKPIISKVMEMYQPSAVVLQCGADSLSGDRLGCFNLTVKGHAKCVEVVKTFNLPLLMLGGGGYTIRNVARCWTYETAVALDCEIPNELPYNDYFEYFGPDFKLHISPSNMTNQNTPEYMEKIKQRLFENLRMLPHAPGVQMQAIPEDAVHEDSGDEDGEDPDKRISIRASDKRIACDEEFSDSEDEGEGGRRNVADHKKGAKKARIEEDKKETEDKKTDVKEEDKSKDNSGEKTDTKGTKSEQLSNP
# Method: (A) The production of SCFAs, branched-chain fatty acids (BCFAs) and medium-chain fatty acids (MCFAs) by 16 human commensals was measured by GC-MS. All bacteria were grown in vitro until stationary growth phase before the measurement of fatty acids in supernatants. (B and C) HDAC inhibition of recombinant class I and class II HDAC isoforms by cell-free supernatants derived from 16 members of human commensal community. Significance was tested against YCFA medium. (D) Impact of bacterial SCFAs, BCFAs and MSCFAs on the activity of class I and II HDAC enzymes. TSA was used as a control pan-HDAC inhibitor.
# Tc9 and Tc17 cells = test: CD8+ T cells polarized under Tc17- or Tc9-inducing conditions; assay type: cell-based, murine; conditions: 3 days
# Method: (A and B) CD8^+ T cells isolated from spleens and LNs were polarized under Tc17-inducing conditions and treated with pentanoate for 3 days. Representative contour plots (A) and bar graphs (B) indicate the frequency of IL-17^+ and IFN-γ+ cells. Three similar experiments were performed. (C and D) CD8^+ T cells isolated from spleens and LNs were polarized under Tc9-inducing conditions and treated with pentanoate for 3 days. Representative contour plots (C) and bar graphs (D) are showing the frequency of IL-9^+ and IFN-γ+ cells. Three similar experiments were performed. (E and F) The expression of granzyme B, IFN-γ and Eomes in pentanoate-treated human CTLs was analysed by flow cytometry. Five independent experiments were performed (E). For Eomes, mean fluorescence intensity (MFI) values are shown (F, n=3).
# mTOR = test: phosphorylation of mTOR and S6 in human CTLs; assay type: cell-based; conditions: three days
# Method: (A and B) CTLs were cultured in medium containing 1.0% FCS and treated with pentanoate (2.5 mM) for three days. Representative histogram plots and bar graphs indicate the phoshorylated levels of mTOR (A) and S6 ribosomal protein (B), respectively (n=3 pooled from three independent experiments). (C and D) Human CTLs were cultured in medium containing 1.0% serum and treated with indicated HDACi for three days. Representative histogram plots and bar graphs indicate the phoshorylated levels of mTOR (C) and S6 ribosomal protein (D), respectively (data points represent four individual healthy donors) (E) Measurement of extracellular acidification rate (ECAR) for in vitro generated murine CTLs cultured with or without 2.5 mM pentanoate for three days. ECAR was measured under basal conditions and in response to glucose (10 mM), oligomycin (2 μM), and 2-deoxy-glucose (2-DG, 100 mM). One of three independent experiments is shown.
structure (smiles),measurement,setting,value
CCCCC(=O)O [pentanoate],TNF-α and IFN-γ production of CAR T cells,[1],enhanced
same,expression of CD25 on CAR T cells,[1],enhanced
same,tumor volume and weight,"B16OVA melanoma cells; OT-I CTLs pretreated three days with pentanoate, transferred day 5 after tumor injection",decreased tumor volume and weight
same,"number of transferred cells expressing TNF-α and IFN-γ in tumors, draining LNs and spleen","B16OVA melanoma cells; day 10 after adoptive transfer, vs control OT-I CTLs",higher number
same,HDAC activity of CTL-derived cell lysates,HDAC,strong reduction of HDAC activity
same,tumor volume and weight,[2]; day 10 following administration of pentanoate-treated CAR T cells,significantly diminished
same,frequency and number of IFN-γ+TNF-α+ CAR T cells in tumors,[2]; vs control CAR T lymphocytes,elevated frequency and number
same,acetylation of histones H3 and H4,histones H3 and H4,increased acetylation
same,inhibition of the HDAC2 isoform,HDAC2,strongly inhibited
same,phenotype of Tc9 and Tc17 cells,Tc9 and Tc17 cells,phenotypical switch towards IFN-γ-producing CTLs
same,phosphorylation level of S6 ribosomal protein,mTOR,elevated the phosphorylation levels
same,phosphorylation level of mTOR,mTOR,elevated the phosphorylation levels
